In article PMC3071021 (Bioorganic & medicinal chemistry letters, 2011):

Tests used:
[1] = system: T6-17 (HER2/neu expressing cells); test: Standard MTT assay, T6-17 cells; format: cell-based; settings: listed as CD4.M3
Jurkat cells = test: Standard MTT assay, Jurkat cells; format: cell-based; settings: listed as CD4.M3

With “[Cys^3-Cys^12]-HAbuFCYIGEVEDQCY-OH (disulfide) [CD4, reference compound]” the “% inhibition of cell growth” value [1] was “unaffected” and the “% inhibition of cell growth” value (Jurkat cells) was “unaffected”.
